The source made the active and inactive calls. The rule behind the calls is not given here.
What was measured:
Homo sapiens = species on record: Homo sapiens; experiment: Selectivity ratio of IC50 for human MAO-A expressed in baculovirus infected BTI insect cells to IC50 for human MAO-B expressed in baculovirus infected BTI insect cells
Cholinesterase [1] = molecular target: T1, Cholinesterase (Homo sapiens, UniProt P06276); experiment: Inhibition of recombinant human BuChE expressed in HEK293 cells preincubated for 15 mins; assay type: cell-based
HEK293 = experiment: Selectivity ratio of IC50 for recombinant human AChE expressed in HEK293 cells to IC50 for recombinant human BuChE expressed in HEK293 cells; assay type: cell-based
[2] = molecular target: T2, Amine oxidase [flavin-containing] A (Homo sapiens, UniProt P21397); experiment: Inhibition of human MAO-A expressed in baculovirus infected BTI insect cells preincubated for 15 mins
T2 sequence (P21397 whole entry): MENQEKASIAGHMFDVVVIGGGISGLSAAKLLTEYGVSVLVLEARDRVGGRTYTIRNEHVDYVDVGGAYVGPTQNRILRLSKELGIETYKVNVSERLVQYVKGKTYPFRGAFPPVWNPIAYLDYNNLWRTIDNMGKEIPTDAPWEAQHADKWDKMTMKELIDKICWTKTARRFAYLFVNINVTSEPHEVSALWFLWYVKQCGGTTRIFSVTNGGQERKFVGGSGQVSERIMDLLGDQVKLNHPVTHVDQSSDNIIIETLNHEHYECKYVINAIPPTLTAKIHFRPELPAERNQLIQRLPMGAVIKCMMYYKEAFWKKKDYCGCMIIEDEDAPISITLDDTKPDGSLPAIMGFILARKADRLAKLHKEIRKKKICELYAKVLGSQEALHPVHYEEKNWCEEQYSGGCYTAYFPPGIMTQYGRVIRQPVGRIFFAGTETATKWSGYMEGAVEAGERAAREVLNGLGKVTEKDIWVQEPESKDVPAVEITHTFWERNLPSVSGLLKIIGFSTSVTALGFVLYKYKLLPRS

[3] = molecular target: T3, Amine oxidase [flavin-containing] B (Homo sapiens, UniProt P27338); experiment: Inhibition of human MAO-B expressed in baculovirus infected BTI insect cells preincubated for 15 mins; assay type: cell-based
T3 sequence (P27338 whole entry): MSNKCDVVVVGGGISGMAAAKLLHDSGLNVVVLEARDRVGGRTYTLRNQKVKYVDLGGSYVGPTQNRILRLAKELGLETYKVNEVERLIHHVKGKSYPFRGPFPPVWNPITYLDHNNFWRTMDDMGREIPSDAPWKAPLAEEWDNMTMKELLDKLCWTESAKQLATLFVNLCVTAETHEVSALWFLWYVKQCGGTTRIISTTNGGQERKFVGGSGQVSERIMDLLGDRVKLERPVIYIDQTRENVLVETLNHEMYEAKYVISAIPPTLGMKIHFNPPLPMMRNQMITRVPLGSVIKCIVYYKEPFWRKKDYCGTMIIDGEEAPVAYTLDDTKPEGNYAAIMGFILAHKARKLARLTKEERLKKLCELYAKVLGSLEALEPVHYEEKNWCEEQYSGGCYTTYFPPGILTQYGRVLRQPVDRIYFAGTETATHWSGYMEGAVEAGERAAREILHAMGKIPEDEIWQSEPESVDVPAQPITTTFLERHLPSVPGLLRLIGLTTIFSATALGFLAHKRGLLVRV

Acetylcholinesterase [4] = molecular target: T4, Acetylcholinesterase (Homo sapiens, UniProt P22303); experiment: Inhibition of recombinant human AChE expressed in HEK293 cells preincubated for 15 mins; assay type: cell-based
[5] = Permeability of the compound by PAMPA-BBB method in presence of PBS:ethanol at 70:30 ratio; assay type: ADME; settings: read-out: permeability
Cholinesterase [6] = molecular target: T1, Cholinesterase; experiment: Inhibition of recombinant human BuChE expressed in HEK293 cells assessed as enzyme recovery compound incubated at 10 times IC50 for 30 mins followed by 100 fold dilution relative to control; assay type: cell-based; parameters: scale not given: the % may be the effect or the level left
[7] = molecular target: T3, Amine oxidase [flavin-containing] B; experiment: Irreversible inhibition of human MAO-B expressed in baculovirus infected BTI insect cells compound incubated at 10 times IC50 for 30 mins followed by 100 fold dilution relative to control; settings: 0.5 h
[8] = molecular target: T2, Amine oxidase [flavin-containing] A; experiment: Reversible inhibition of human MAO-A expressed in baculovirus infected BTI insect cells
[9] = molecular target: T2, Amine oxidase [flavin-containing] A; experiment: Irreversible inhibition of human MAO-A expressed in baculovirus infected BTI insect cells compound incubated at 10 times IC50 for 30 mins followed by 100 fold dilution relative to control; settings: 0.5 h
Acetylcholinesterase [10] = molecular target: T4, Acetylcholinesterase; experiment: Inhibition of recombinant human AChE expressed in HEK293 cells assessed as enzyme recovery compound incubated at 10 times IC50 for 30 mins followed by 100 fold dilution relative to control; assay type: cell-based; parameters: scale not given: the % may be the effect or the level left
Cholinesterase [11] = molecular target: T1, Cholinesterase; experiment: Inhibition of recombinant human BuChE expressed in HEK293 cells preincubated at 100 uM for 15 mins; assay type: cell-based
[12] = molecular target: T3, Amine oxidase [flavin-containing] B; experiment: Inhibition of human MAO-B expressed in baculovirus infected BTI insect cells preincubated at 100 uM for 15 mins
[13] = molecular target: T2, Amine oxidase [flavin-containing] A; experiment: Inhibition of human MAO-A expressed in baculovirus infected BTI insect cells preincubated at 100 uM for 15 mins
Acetylcholinesterase [14] = molecular target: T4, Acetylcholinesterase; experiment: Inhibition of recombinant human AChE expressed in HEK293 cells preincubated at 100 uM for 15 mins; assay type: cell-based

T4 sequence (P22303 whole entry): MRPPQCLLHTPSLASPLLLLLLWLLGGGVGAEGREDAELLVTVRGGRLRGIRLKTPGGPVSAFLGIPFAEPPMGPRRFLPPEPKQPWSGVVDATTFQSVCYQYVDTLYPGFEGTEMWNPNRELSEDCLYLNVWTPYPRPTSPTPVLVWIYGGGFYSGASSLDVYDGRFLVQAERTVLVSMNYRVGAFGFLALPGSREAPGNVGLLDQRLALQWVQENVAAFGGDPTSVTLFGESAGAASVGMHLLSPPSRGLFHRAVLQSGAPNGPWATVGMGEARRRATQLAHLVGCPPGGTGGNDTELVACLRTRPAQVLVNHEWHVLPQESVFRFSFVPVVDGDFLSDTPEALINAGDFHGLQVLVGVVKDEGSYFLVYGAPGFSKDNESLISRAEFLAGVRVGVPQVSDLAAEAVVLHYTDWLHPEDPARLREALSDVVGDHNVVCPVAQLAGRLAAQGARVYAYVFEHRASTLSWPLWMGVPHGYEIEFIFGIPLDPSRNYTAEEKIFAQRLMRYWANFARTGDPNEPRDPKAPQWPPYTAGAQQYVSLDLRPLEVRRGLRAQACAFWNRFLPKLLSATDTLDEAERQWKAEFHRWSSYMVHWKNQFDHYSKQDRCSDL
T1 sequence (P06276 whole entry): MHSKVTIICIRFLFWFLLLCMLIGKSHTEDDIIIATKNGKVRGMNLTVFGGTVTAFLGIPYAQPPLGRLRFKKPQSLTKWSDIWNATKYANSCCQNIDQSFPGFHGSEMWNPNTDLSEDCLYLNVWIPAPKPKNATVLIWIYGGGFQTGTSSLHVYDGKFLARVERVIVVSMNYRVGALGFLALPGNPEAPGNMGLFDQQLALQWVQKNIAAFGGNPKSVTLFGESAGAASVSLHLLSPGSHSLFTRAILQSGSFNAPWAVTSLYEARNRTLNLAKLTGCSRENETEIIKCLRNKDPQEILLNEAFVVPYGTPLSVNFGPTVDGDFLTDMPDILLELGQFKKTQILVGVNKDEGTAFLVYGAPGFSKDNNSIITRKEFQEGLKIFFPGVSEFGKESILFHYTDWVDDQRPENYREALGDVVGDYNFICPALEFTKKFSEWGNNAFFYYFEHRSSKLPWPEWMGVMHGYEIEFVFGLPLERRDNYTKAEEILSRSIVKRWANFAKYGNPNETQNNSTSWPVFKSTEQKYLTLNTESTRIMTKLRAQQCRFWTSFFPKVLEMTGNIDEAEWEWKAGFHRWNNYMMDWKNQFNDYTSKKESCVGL

SMILES | Ratio IC50 (Homo sapiens) | IC50 (Cholinesterase [1]) | Ratio IC50 (HEK293) | IC50 [2] | IC50 [3] | IC50 (Acetylcholinesterase [4]) | also measured
C#CCN(C)Cc1cc2cc(OCCCC3CCN(Cc4ccccc4)CC3)ccc2[nH]1 | 0.26 | 7.1 µM | 2.2 | 9.1 µM | 35.1 µM | 15.4 µM | 
C#CCN(C)Cc1cc2cc(OCCCC3CCN(Cc4ccc(OC(=O)N(C)C)c5ncccc45)CC3)ccc2n1C | 1.3 | 5.9 µM | 1.4 | 0.258 µM | 0.196 µM | 8.4 µM | 
C=CCNCc1cc2cc(OCCCC3CCN(Cc4ccccc4)CC3)ccc2[nH]1 | 2.1 | 40.6 µM | 0.11 | 45.3 µM | 21.3 µM | 4.6 µM | 
C#CCNCc1cc2cc(OCCCC3CCN(Cc4ccccc4)CC3)ccc2[nH]1 | 0.57 | 7.3 µM | 0.67 | 19.2 µM | 33.6 µM | 4.9 µM | 
C#CCN(C)Cc1ccc(OC(=O)N(C)C)c2ncccc12 |  | 7.9 µM |  |  |  | 0.52 µM | 
C#CCN(C)Cc1cc2cc(OCCCC3CCN(Cc4ccccc4C)CC3)ccc2n1C | 0.03 | 4.9 µM |  |  | 0.184 µM | 2.8 µM | Papp [5]: 14.4 ×10⁻⁶ cm/s; Activity (Cholinesterase [6]): 20%; inhibition (INH) [7]: 90%; IC50 [8]: 6.3 µM; inhibition (INH) [9]: 90%; Activity (Acetylcholinesterase [10]): 20%
C#CCN(C)Cc1cc2cc(OCCCC3CCN(Cc4ccc(OC)c5ncccc45)CC3)ccc2n1C |  |  |  | 10.3 µM | 7.9 µM |  | inhibition (Cholinesterase [11]): inactive; inhibition at 100 µM [12]: 40%; inhibition at 100 µM [13]: 40%
CCOC(=O)c1cc2cc(OCCCC3CCN(Cc4ccccc4)CC3)ccc2[nH]1 | 0.87 | 9.7 µM | 0.99 | 0.877 µM | 1 µM | 9.6 µM | 
OCc1cc2cc(OCCCC3CCN(Cc4ccccc4)CC3)ccc2[nH]1 | 0.67 | 31.2 µM | 0.43 | 9.1 µM | 13.5 µM | 13.6 µM | 
C#CCN(C)Cc1cc2cc(OCCCC3CCN(Cc4ccccc4)CC3)ccc2n1C | 0.05 | 3.3 µM | 1.03 | 0.0582 µM | 1.2 µM | 3.4 µM | 
C#CCN(C)Cc1cc2cc(OCc3ccc(OC)c4ncccc34)ccc2[nH]1 |  |  |  | 630 µM | 165 µM |  | inhibition (Acetylcholinesterase [14]): inactive; inhibition (Cholinesterase [11]): inactive
C#CCN(C)Cc1cc2cc(OCc3ccc(OC(=O)N(C)C)c4ncccc34)ccc2n1C |  |  |  | 311 µM | 273 µM |  | inhibition (Acetylcholinesterase [14]): inactive; inhibition (Cholinesterase [11]): inactive
C#CCNCc1cc2cc(OCc3ccccc3)ccc2[nH]1 | 70 |  |  | 0.287 µM | 0.0041 µM |  | 

From ChEMBL document CHEMBL3407435, “N-Methyl-N-((1-methyl-5-(3-(1-(2-methylbenzyl)piperidin-4-yl)propoxy)-1H-indol-2-yl)methyl)prop-2-yn-1-amine, a new cholinesterase and monoamine oxidase dual inhibitor” (J Med Chem, 2014)
